One series relates to Priestia megaterium. The series can be described thus: Antibiofilm activity against ofloxacin-resistant Bacillus megaterium assessed as disruption of biofilm at 200 ug/ml after 24 hrs by crystal violet staining based ELISA relative to control. The class given is functional. For orientation: ELISA stands for enzyme-linked immunosorbent assay.
In a further series the test system is Bacillus subtilis. The series can be described thus: Antibiofilm activity against tetracycline-resistant Bacillus subtilis assessed as disruption of biofilm at 200 ug/ml after 24 hrs by crystal violet staining based ELISA relative to control. The class given is functional.
Series [1] concerns Escherichia coli. The series can be described thus: Antibiofilm activity against carbapenem-resistant Escherichia coli assessed as disruption of biofilm at 200 ug/ml after 24 hrs by crystal violet staining based ELISA relative to control. The class given is functional.
The subject of a further series is Pseudomonas fluorescens. Put plainly: Antibiofilm activity against tetracycline-resistant Pseudomonas fluorescens assessed as disruption of biofilm at 200 ug/ml after 24 hrs by crystal violet staining based ELISA relative to control. The class given is functional.
Series [2] deals with Pseudomonas aeruginosa. The series can be described thus: Antibiofilm activity against carbenicillin-resistant Pseudomonas aeruginosa assessed as disruption of biofilm at 200 ug/ml after 24 hrs by crystal violet staining based ELISA relative to control. The format is functional.
Series [3] deals with Klebsiella pneumoniae. Put plainly: Antibiofilm activity against carbapenem-resistant Klebsiella pneumoniae assessed as disruption of biofilm at 200 ug/ml after 24 hrs by crystal violet staining based ELISA relative to control. The format is functional.
The subject of series [4] is Klebsiella pneumoniae. The series can be described thus: Antibiofilm activity against tetracycline-resistant Klebsiella pneumoniae assessed as disruption of biofilm at 200 ug/ml after 24 hrs by crystal violet staining based ELISA relative to control. The format is functional.
In series [5] the test system is Escherichia coli. The series can be described thus: Antibiofilm activity against carbenicillin-resistant Escherichia coli assessed as disruption of biofilm at 100 ug/ml after 24 hrs by crystal violet staining based ELISA relative to control. The format is functional.
Series [6] deals with Pseudomonas aeruginosa. The series can be described thus: Antibiofilm activity against carbenicillin-resistant Pseudomonas aeruginosa assessed as disruption of biofilm at 100 ug/ml after 24 hrs by crystal violet staining based ELISA relative to control. The class given is functional.
The test system of series [7] is Escherichia coli. Put plainly: Antibiofilm activity against carbenicillin-resistant Escherichia coli assessed as disruption of biofilm at 10 ug/ml by crystal violet/acridine orange staining based fluorescence microscopic analysis. The format is functional, organism-based.
In series [8] the test system is Pseudomonas aeruginosa. The series can be described thus: Antibiofilm activity against carbenicillin-resistant Pseudomonas aeruginosa assessed as disruption of biofilm at 10 ug/ml by crystal violet/acridine orange staining based fluorescence microscopic analysis. The format is functional, organism-based.
Series [9] concerns Klebsiella pneumoniae. The series can be described thus: Antibiofilm activity against carbenicillin-resistant Klebsiella pneumoniae assessed as disruption of biofilm at 10 ug/ml by crystal violet/acridine orange staining based fluorescence microscopic analysis. The format is functional, organism-based.
Series [10] concerns Klebsiella pneumoniae. Put plainly: Antibiofilm activity against tetracycline-resistant Klebsiella pneumoniae assessed as disruption of biofilm at 10 ug/ml by crystal violet/acridine orange staining based fluorescence microscopic analysis. The class given is functional, organism-based.
The test system of series [11] is Escherichia coli. The series can be described thus: Reduction in reactive oxygen species level in carbapenem-resistant Escherichia coli biofilm at 10 ug/ml measured after 2 to 6 hrs by DCFH-DA probe based UV-spectrofluorimetric method. The format is functional, organism-based.
Series [12] deals with Escherichia coli. The series can be described thus: Antibiofilm activity against carbapenem-resistant Escherichia coli biofilm assessed as reactive oxygen species generation at 10 ug/ml after 1 hr by DCFH-DA probe based UV-spectrofluorimetric method relative to control. The format is functional.
Series [13] relates to HEK293. The series can be described thus: Cytotoxicity against HEK293 cells assessed as reduction in cell viability at >75 ug/ml after 24 hrs by MTT assay. The format is cell-based. As to conditions: human, hek293, 24 h. (Tetrazolium dyes change colour on reduction, which living cells bring about.)
Series [14] concerns HEK293. The series can be described thus: Cytotoxicity against HEK293 cells assessed as reduction in cell viability up to 75 ug/ml after 24 hrs by MTT assay. The format is cell-based. As to conditions: human, hek293, 24 h.
In series [15] the test system is Klebsiella pneumoniae. Put plainly: Antibiofilm activity against carbenicillin-resistant Klebsiella pneumoniae assessed as disruption of biofilm at 200 ug/ml after 24 hrs by crystal violet staining based ELISA relative to control. The format is functional.
Series [16] deals with Klebsiella pneumoniae. The series can be described thus: Antibiofilm activity against tetracycline-resistant Klebsiella pneumoniae assessed as disruption of biofilm at 100 ug/ml after 24 hrs by crystal violet staining based ELISA relative to control. The format is functional.

For orientation: inhibition means the change of the read-out against control, counted positive when it falls.

Active and inactive are the calls of the source. No cut-off for these calls is given here.

Turning to `Cc1ccc2[nH]c3c(c2c1)CCC(=C\c1cccc(F)c1)/C3=C(\C#N)C(N)=O`, the inhibition at 200 µg/mL in the series on Priestia megaterium was 21.1%; in the series on Bacillus subtilis it was 10%; in the series with Escherichia coli [1], 24.8%; in the series with Pseudomonas fluorescens it was 15%; with Pseudomonas aeruginosa [2], 25.3%; with Klebsiella pneumoniae [3] it was 29%. Further, the inhibition at 200 µg/mL in the series on Klebsiella pneumoniae [4] was 0%.

`COc1ccc(/C=C2\CCc3c([nH]c4c(C)cccc34)\C2=C(\C#N)C(N)=O)cc1OC`: the inhibition at 200 µg/mL stood at 6.1% in the series with Priestia megaterium; 31% in the series with Bacillus subtilis; 84.6% with Escherichia coli [1]; 0% in the series with Pseudomonas fluorescens; 12.5% in the series with Pseudomonas aeruginosa [2]; 16% in the series with Klebsiella pneumoniae [3]. Moreover, in the series with Klebsiella pneumoniae [4], the inhibition at 200 µg/mL amounted to 23%.

Take `Cc1cccc2c3c([nH]c12)C(=C(/C#N)C(N)=O)/C(=C/c1ccccc1)CC3`: the inhibition at 200 µg/mL was found to be 31.4% in the series with Priestia megaterium; 23% in the series on Bacillus subtilis; 14.6% with Escherichia coli [1]; 0% in the series on Pseudomonas fluorescens; 4.3% with Pseudomonas aeruginosa [2]; 21% in the series with Klebsiella pneumoniae [3]. Also, in the series on Klebsiella pneumoniae [4], the inhibition at 200 µg/mL amounted to 1.9%.

`Cc1cccc2c3c([nH]c12)C(=C(/C#N)C(N)=O)/C(=C/c1cccs1)CC3`: the inhibition at 200 µg/mL in the series on Priestia megaterium came to 17.6%; in the series on Bacillus subtilis, 12%; in the series with Escherichia coli [1], 22.8%; in the series on Pseudomonas fluorescens it was 0%; with Pseudomonas aeruginosa [2] it was 24.1%; in the series on Klebsiella pneumoniae [3] it was 12%. The inhibition at 200 µg/mL with Klebsiella pneumoniae [4] amounted to 27.9%.

As to `Cc1ccc2[nH]c3c(c2c1)CCC(=C\c1ccccn1)/C3=C(\C#N)C(N)=O`, the inhibition at 200 µg/mL came out at 18.2% in the series with Priestia megaterium; 26% with Bacillus subtilis; 21.7% with Escherichia coli [1]; 29% with Pseudomonas fluorescens; 17% in the series on Pseudomonas aeruginosa [2]; 32% in the series on Klebsiella pneumoniae [3]. The inhibition at 200 µg/mL in the series with Klebsiella pneumoniae [4] was found to be 0%.

In the case of `O=C(O)c1cn(C2CC2)c2cc(N3CCNCC3)c(F)cc2c1=O` [CIPROFLOXACIN], the inhibition at 200 µg/mL in the series with Priestia megaterium worked out at 56.3%; with Bacillus subtilis it was 23%; with Escherichia coli [1], 45%; with Pseudomonas fluorescens, 38%; in the series on Pseudomonas aeruginosa [2], 49.7%; with Klebsiella pneumoniae [3], 25.5%. Further, in the series with Klebsiella pneumoniae [4], the inhibition at 200 µg/mL came to 43%.

Consider `COc1ccc(/C=C2\CCc3c([nH]c4cc(C)ccc34)\C2=C(\C#N)C(N)=O)cc1OC`, for which the inhibition at 200 µg/mL came to 10.9% in the series with Priestia megaterium; 32% with Bacillus subtilis; 17.2% in the series with Escherichia coli [1]; 5% in the series with Pseudomonas fluorescens; 15.3% with Pseudomonas aeruginosa [2]; 12% in the series with Klebsiella pneumoniae [3]. Moreover, the inhibition at 200 µg/mL with Klebsiella pneumoniae [4] amounted to 18.3%.

Take `Cc1ccc2c3c([nH]c2c1)C(=C(/C#N)C(N)=O)/C(=C/c1ccccc1)CC3`: the inhibition at 200 µg/mL in the series with Priestia megaterium is 13.1%; in the series on Bacillus subtilis, 45%; with Escherichia coli [1] it was 16%; in the series with Pseudomonas fluorescens, 26.4%; in the series with Pseudomonas aeruginosa [2] it was 17%; in the series with Klebsiella pneumoniae [3], 14%. In addition, the inhibition at 200 µg/mL with Klebsiella pneumoniae [4] was found to be 15.6%.

With `Cc1ccc2[nH]c3c(c2c1)CCC(=C\c1ccccc1)/C3=C(\C#N)C(N)=O`, the inhibition at 200 µg/mL in the series with Priestia megaterium turned out to be 21.4%; in the series on Bacillus subtilis it was 23%; in the series with Escherichia coli [1] it was 85%; with Pseudomonas fluorescens, 31%; in the series on Pseudomonas aeruginosa [2], 81%; in the series on Klebsiella pneumoniae [3], 71%. Also, in the series with Klebsiella pneumoniae [4], the inhibition at 200 µg/mL was found to be 71%. Moreover, the inhibition at 100 µg/mL in the series with Escherichia coli [5] was found to be 89%; with Pseudomonas aeruginosa [6], 79%. The outcome in the series with Escherichia coli [7], in the series with Pseudomonas aeruginosa [8], in the series with Klebsiella pneumoniae [9], in the series on Klebsiella pneumoniae [10] and in the series with Escherichia coli [11] was Active. Also, the “fold change (FC)” value in the series on Escherichia coli [12] is 2. The values for the Activity result with HEK293 [13] and with HEK293 [14] were “Toxic” and “Non-Toxic”, respectively.

In the case of `CCOc1ccc(/C=C2\CCc3c([nH]c4ccc(C)cc34)\C2=C(\C#N)C(N)=O)cc1OCC`, the inhibition at 200 µg/mL stood at 11.2% in the series on Priestia megaterium; 8% in the series on Bacillus subtilis; 27.4% in the series on Escherichia coli [1]; 18% with Pseudomonas fluorescens; 29.3% with Pseudomonas aeruginosa [2]; 16% in the series on Klebsiella pneumoniae [3]. The inhibition at 200 µg/mL in the series on Klebsiella pneumoniae [4] stood at 23.3%.

On to `Cc1ccc2[nH]c3c(c2c1)CCC(=C\c1ccc(F)cc1)/C3=C(\C#N)C(N)=O`, for which the inhibition at 200 µg/mL in the series with Priestia megaterium was determined as 32.4%; in the series on Bacillus subtilis, 56%; with Escherichia coli [1], 13.4%; in the series on Pseudomonas fluorescens it was 11%; in the series with Pseudomonas aeruginosa [2] it was 19.3%; with Klebsiella pneumoniae [3], 17%. In the series with Klebsiella pneumoniae [4], the inhibition at 200 µg/mL was 0%.

As to `COc1ccc(/C=C2\CCc3c([nH]c4ccc(C)cc34)\C2=C(\C#N)C(N)=O)cc1OC`, the inhibition at 200 µg/mL turned out to be 17.1% with Priestia megaterium; 21% in the series on Bacillus subtilis; 80% in the series with Escherichia coli [1]; 31% in the series with Pseudomonas fluorescens; 67% with Pseudomonas aeruginosa [2]; 78% in the series with Klebsiella pneumoniae [3]. For the same molecule, the values for the inhibition at 200 µg/mL in the series on Klebsiella pneumoniae [4] and with Klebsiella pneumoniae [15] were 78% and 82%, respectively. Moreover, the inhibition at 100 µg/mL with Escherichia coli [5] was found to be 78%.

On to `Cc1ccc2c3c([nH]c2c1)C(=C(/C#N)C(N)=O)/C(=C/c1cccs1)CC3`, for which the inhibition at 200 µg/mL in the series on Priestia megaterium was 15.7%; in the series on Bacillus subtilis it was 21%; in the series on Escherichia coli [1], 9.8%; in the series on Pseudomonas fluorescens it was 28%; with Pseudomonas aeruginosa [2], 18.9%; with Klebsiella pneumoniae [3] it was 18%. Besides, in the series on Klebsiella pneumoniae [4], the inhibition at 200 µg/mL is 3.5%.

For `Cc1ccc2[nH]c3c(c2c1)CCC(=C\c1cccs1)/C3=C(\C#N)C(N)=O`, the inhibition at 200 µg/mL in the series with Priestia megaterium was 4.5%; in the series with Bacillus subtilis, 28%; in the series on Escherichia coli [1], 70%; with Pseudomonas fluorescens, 73%; with Pseudomonas aeruginosa [2], 29.3%; with Klebsiella pneumoniae [3], 74%. The inhibition at 200 µg/mL in the series with Klebsiella pneumoniae [4] came out at 81%. Besides, the inhibition at 100 µg/mL in the series on Escherichia coli [5] and with Klebsiella pneumoniae [16] was 78% each time.

In the case of `Cc1ccc2[nH]c3c(c2c1)CCC(=C\c1cccc(Br)c1)/C3=C(\C#N)C(N)=O`, the inhibition at 200 µg/mL was 6.3% in the series on Priestia megaterium; 10% with Bacillus subtilis; 33.5% in the series with Escherichia coli [1]; 12% in the series on Pseudomonas fluorescens; 13.2% with Pseudomonas aeruginosa [2]; 20.7% in the series on Klebsiella pneumoniae [3]. In addition, the inhibition at 200 µg/mL with Klebsiella pneumoniae [4] was found to be 28.3%.
